{"source": "patent US12527779B2", "about": "“Prostaglandin E2 (PGE2) EP4 receptor antagonists” (Domain Therapeutics, priority 2019, dated 2026)", "note": "Structures can show the parent of a compound that is named as a salt."}
{"molecular_target": "T1, human EP4 (hEP4) receptor (Homo sapiens, UniProt P35408)", "T1 construct": "expressed in transfected cells; host or cells: HEK-293 T cells, transient co-transfection with polyethylenimine", "T1 sequence (P35408 whole entry)": "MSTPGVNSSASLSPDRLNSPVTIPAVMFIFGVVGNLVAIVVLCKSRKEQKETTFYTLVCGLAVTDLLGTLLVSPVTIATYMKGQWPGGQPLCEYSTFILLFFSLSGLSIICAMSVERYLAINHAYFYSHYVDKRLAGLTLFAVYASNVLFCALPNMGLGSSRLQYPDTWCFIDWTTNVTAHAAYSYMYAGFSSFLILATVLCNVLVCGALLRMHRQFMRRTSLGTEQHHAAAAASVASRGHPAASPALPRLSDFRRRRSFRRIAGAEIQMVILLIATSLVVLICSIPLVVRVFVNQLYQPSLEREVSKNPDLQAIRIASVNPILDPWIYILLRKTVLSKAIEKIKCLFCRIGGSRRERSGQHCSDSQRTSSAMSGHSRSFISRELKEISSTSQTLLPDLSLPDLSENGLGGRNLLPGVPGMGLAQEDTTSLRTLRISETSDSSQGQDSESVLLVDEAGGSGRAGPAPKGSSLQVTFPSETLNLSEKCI", "experiment": "In vitro human EP4 functional antagonist activity using BRET biosensors (cAMP EPAC biosensor, TCS2510 stimulation)", "assay_type": "cell-based", "conditions": "antagonist activity vs EC60 TCS2510, hEP4 in HEK-293 T cells", "method_in_brief": "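HEK-293T cells transiently co-transfected with hEP4 and EPAC cAMP BRET biosensor (luciferase/GFP), assayed 48 h later in HEPES-buffered saline after 1 h at 22 °C. After 5 min with compound, cells stimulated with EC60 TCS2510 and BRET read for 10 min; IC50 from 10-point, 4.5-log variable-slope fits, duplicate, two experiments.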", "units": {"IC50": "nM"}}
{"smiles": "C[C@H](NC(=O)C1(N2CC[C@@H](Oc3cccc(F)c3)C2)CCOCC1)c1ccc(C(=O)O)cc1", "note": "[Example 142, 4-[(1S)-1-[[4-[(3R)-3-(3-Fluorophenoxy)pyrrolidin-1-yl]tetrahydropyran-4-carbonyl]amino]ethyl]benzoic acid, hydrochloride]", "IC50": "< 100"}
{"smiles": "O=C(O)c1ccc(C2(NC(=O)C3(N4CC[C@@H](Oc5cccc(F)c5)C4)CCOCC3)CC2)cc1", "note": "[Example 143, 4-[1-[[4-[(3R)-3-(3-Fluorophenoxy)pyrrolidin-1-yl]tetrahydropyran-4-carbonyl]amino]cyclopropyl]benzoic acid, hydrochloride]", "IC50": "< 100"}
{"smiles": "C[C@H](NC(=O)C1(N2CC[C@@H](Oc3cccc(C(F)(F)F)c3)C2)CCOCC1)c1ccc(C(=O)O)cc1", "note": "[Example 144, 4-[(1S)-1-[[4-[(3R)-3-[3-(Trifluoromethyl)phenoxy]pyrrolidin-1-yl]tetrahydropyran-4-carbonyl]amino]ethyl]benzoic acid, hydrochloride]", "IC50": "< 100"}
{"smiles": "O=C(O)c1ccc(C2(NC(=O)C3(N4CC[C@@H](Oc5cccc(C(F)(F)F)c5)C4)CCOCC3)CC2)cc1", "note": "[Example 145, 4-[1-[[4-[(3R)-3-[3-(Trifluoromethyl)phenoxy]pyrrolidin-1-yl]tetrahydropyran-4-carbonyl]amino]cyclopropyl]benzoic acid, hydrochloride]", "IC50": "< 100"}
{"smiles": "C[C@H](NC(=O)C1(N2CC[C@@H](Oc3cccc(OC(F)(F)F)c3)C2)CCOCC1)c1ccc(C(=O)O)cc1", "note": "[Example 146, 4-[(1S)-1-[[4-[(3R)-3-[3-(Trifluoromethoxy)phenoxy]pyrrolidin-1-yl]tetrahydropyran-4-carbonyl]amino]ethyl]benzoic acid, hydrochloride]", "IC50": "< 100"}
{"smiles": "O=C(O)c1ccc(C2(NC(=O)C3(N4CC[C@@H](Oc5cccc(OC(F)(F)F)c5)C4)CCOCC3)CC2)cc1", "note": "[Example 147, 4-[1-[[4-[(3R)-3-[3-(Trifluoromethoxy)phenoxy]pyrrolidin-1-yl]tetrahydropyran-4-carbonyl]amino]cyclopropyl]benzoic acid, hydrochloride]", "IC50": "< 100"}
{"smiles": "COc1cccc(O[C@@H]2CCN(C3(C(=O)N[C@@H](C)c4ccc(C(=O)O)cc4)CCOCC3)C2)c1", "note": "[Example 148, 4-[(1S)-1-[[4-[(3R)-3-(3-Methoxyphenoxy)pyrrolidin-1-yl]tetrahydropyran-4-carbonyl]amino]ethyl]benzoic acid, hydrochloride]", "IC50": "< 100"}
{"smiles": "COc1cccc(O[C@@H]2CCN(C3(C(=O)NC4(c5ccc(C(=O)O)cc5)CC4)CCOCC3)C2)c1", "note": "[Example 149, 4-[1-[[4-[(3R)-3-(3-Methoxyphenoxy)pyrrolidin-1-yl]tetrahydropyran-4-carbonyl]amino]cyclopropyl]benzoic acid, hydrochloride]", "IC50": "< 100"}
{"smiles": "Cc1cccc(O[C@@H]2CCN(C3(C(=O)N[C@@H](C)c4ccc(C(=O)O)cc4)CCOCC3)C2)c1", "note": "[Example 150, 4-[(1S)-1-[[4-[(3R)-3-(3-Methylphenoxy)pyrrolidin-1-yl]tetrahydropyran-4-carbonyl]amino]ethyl]benzoic acid, hydrochloride]", "IC50": "< 100"}
{"smiles": "Cc1cccc(O[C@@H]2CCN(C3(C(=O)NC4(c5ccc(C(=O)O)cc5)CC4)CCOCC3)C2)c1", "note": "[Example 151, 4-[1-[[4-[(3R)-3-(3-Methylphenoxy)pyrrolidin-1-yl]tetrahydropyran-4-carbonyl]amino]cyclopropyl]benzoic acid, hydrochloride]", "IC50": "< 100"}
{"smiles": "C[C@H](NC(=O)C1(N2CC[C@@H](Oc3ccccc3)C2)CCOCC1)c1ccc(C(=O)O)cc1", "note": "[Example 152, 4-[(1S)-1-[[4-((3R)-3-Phenoxypyrrolidin-1-yl)tetrahydropyran-4-carbonyl]amino]ethyl]benzoic acid, hydrochloride]", "IC50": "< 100"}
{"smiles": "O=C(O)c1ccc(C2(NC(=O)C3(N4CC[C@@H](Oc5ccccc5)C4)CCOCC3)CC2)cc1", "note": "[Example 153, 4-[1-[[4-((3R)-3-Phenoxypyrrolidin-1-yl)tetrahydropyran-4-carbonyl]amino]cyclopropyl]benzoic acid, hydrochloride]", "IC50": "< 100"}
{"smiles": "C[C@H](NC(=O)C1(N2CC[C@@H](OC3CCCCC3)C2)CCOCC1)c1ccc(C(=O)O)cc1", "note": "[Example 154, 4-[(1S)-1-[[4-[(3R)-3-(Cyclohexyloxy]pyrrolidin-1-yl]tetrahydropyran-4-carbonyl]amino]ethyl]benzoic acid, hydrochloride]", "IC50": "< 100"}
{"smiles": "C[C@H](NC(=O)C1(N2CC[C@@H](Oc3cccc(Cl)c3)C2)CCCCC1)c1ccc(C(=O)O)cc1", "note": "[Example 155, 4-[(1S)-1-[[1-[(3R)-3-(3-Chlorophenoxy)pyrrolidin-1-yl]cyclohexane-1-carbonyl]amino]ethyl]benzoic acid, hydrochloride]", "IC50": "< 100"}
{"smiles": "C[C@H](NC(=O)C1(N2CC[C@@H](Oc3cccc(Cl)c3)C2)CCC(F)(F)CC1)c1ccc(C(=O)O)cc1", "note": "[Example 156, 4-[(1S)-1-[[1-[(3R)-3-(3-Chlorophenoxy)pyrrolidin-1-yl]-4,4-difluorocyclohexane-1-carbonyl]amino]ethyl]benzoic acid, hydrochloride]", "IC50": "< 100"}
{"smiles": "C[C@H](NC(=O)C1(N2CC[C@@H](Oc3cccc(Cl)c3)C2)CCCC1)c1ccc(C(=O)O)cc1", "note": "[Example 157, 4-[(1S)-1-[[1-[(3R)-3-(3-Chlorophenoxy)pyrrolidin-1-yl]cyclopentane-1-carbonyl]amino]ethyl]benzoic acid, hydrochloride]", "IC50": "< 100"}
{"smiles": "C[C@H](NC(=O)C1(N2CC[C@@H](Oc3cccc(Cl)c3)C2)CCC1)c1ccc(C(=O)O)cc1", "note": "[Example 159, 4-[(1S)-1-[[1-[(3R)-3-(3-Chlorophenoxy)pyrrolidin-1-yl]cyclobutane-1-carbonyl]amino]ethyl]benzoic acid, hydrochloride]", "IC50": "< 100"}
{"smiles": "C[C@H](NC(=O)C1(N2CC[C@@H](Oc3cccc(Cl)c3)C2)CC1)c1ccc(C(=O)O)cc1", "note": "[Example 160, 4-[(1S)-1-[[1-[(3R)-3-(3-Chlorophenoxy)pyrrolidin-1-yl]cyclopropane-1-carbonyl]amino]ethyl]benzoic acid, hydrochloride]", "IC50": "< 100"}
{"smiles": "C[C@H](NC(=O)C(C)(C)N1CC[C@@H](Oc2cccc(Cl)c2)C1)c1ccc(C(=O)O)cc1", "note": "[Example 161, hydrochloride]", "IC50": "< 100"}
{"smiles": "C[C@H](NC(=O)C1(N2CC[C@@H](Oc3cccc(C(F)(F)F)c3)C2)CCCCC1)c1ccc(C(=O)O)cc1", "note": "[Example 162, 4-[(1S)-1-[[1-[(3R)-3-[3-(Trifluoromethyl)phenoxy]pyrrolidin-1-yl]cyclohexane-1-carbonyl]amino]ethyl]benzoic acid, hydrochloride]", "IC50": "< 100"}
{"smiles": "C[C@H](NC(=O)C1(N2CC[C@@H](Oc3cccc(C(F)(F)F)c3)C2)CCC(F)(F)CC1)c1ccc(C(=O)O)cc1", "note": "[Example 163, 4-[(1S)-1-[[1-[(3R)-3-[3-(Trifluoromethyl)phenoxy]pyrrolidin-1-yl]-4,4-difluorocyclohexane-1-carbonyl]amino]ethyl]benzoic acid, hydrochloride]", "IC50": "< 100"}
{"smiles": "C[C@H](NC(=O)C1(N2CC[C@@H](Oc3cccc(C(F)(F)F)c3)C2)CCCC1)c1ccc(C(=O)O)cc1", "note": "[Example 164, 4-[(1S)-1-[[1-[(3R)-3-[3-Trifluoromethyl)phenoxy]pyrrolidin-1-yl]cyclopentane-1-carbonyl]amino]ethyl]benzoic acid, hydrochloride]", "IC50": "< 100"}
